Experimental data from ChEMBL document CHEMBL1149409, “Inhibition of GABA shunt enzymes' activity by 4-hydroxybenzaldehyde derivatives” (Bioorg Med Chem Lett, 2006).

How the values were obtained:
[1] = molecular target: T1, Succinate-semialdehyde dehydrogenase, mitochondrial (Homo sapiens, UniProt P51649); assay: Inhibitory activity against SSADH
T1 sequence (P51649 whole entry): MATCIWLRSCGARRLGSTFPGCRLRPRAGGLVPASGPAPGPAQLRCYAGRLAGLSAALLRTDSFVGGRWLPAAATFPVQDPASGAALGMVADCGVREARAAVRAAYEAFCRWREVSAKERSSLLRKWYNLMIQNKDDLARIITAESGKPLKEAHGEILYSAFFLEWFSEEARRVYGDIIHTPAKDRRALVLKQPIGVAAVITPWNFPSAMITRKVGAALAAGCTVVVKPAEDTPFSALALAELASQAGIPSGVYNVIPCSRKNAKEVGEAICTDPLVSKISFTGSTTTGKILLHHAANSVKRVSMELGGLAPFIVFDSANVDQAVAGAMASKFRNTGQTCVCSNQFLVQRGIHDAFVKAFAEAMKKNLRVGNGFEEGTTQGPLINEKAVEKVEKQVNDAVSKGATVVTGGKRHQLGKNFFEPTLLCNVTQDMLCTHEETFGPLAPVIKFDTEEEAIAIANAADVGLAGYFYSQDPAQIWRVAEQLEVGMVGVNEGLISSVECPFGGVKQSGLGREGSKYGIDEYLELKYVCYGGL

[2] = molecular target: 4-aminobutyrate aminotransferase, mitochondrial (Homo sapiens, UniProt P80404); assay: Inhibitory activity against GABAT
Chain of 4-aminobutyrate aminotransferase, mitochondrial (P80404 whole entry): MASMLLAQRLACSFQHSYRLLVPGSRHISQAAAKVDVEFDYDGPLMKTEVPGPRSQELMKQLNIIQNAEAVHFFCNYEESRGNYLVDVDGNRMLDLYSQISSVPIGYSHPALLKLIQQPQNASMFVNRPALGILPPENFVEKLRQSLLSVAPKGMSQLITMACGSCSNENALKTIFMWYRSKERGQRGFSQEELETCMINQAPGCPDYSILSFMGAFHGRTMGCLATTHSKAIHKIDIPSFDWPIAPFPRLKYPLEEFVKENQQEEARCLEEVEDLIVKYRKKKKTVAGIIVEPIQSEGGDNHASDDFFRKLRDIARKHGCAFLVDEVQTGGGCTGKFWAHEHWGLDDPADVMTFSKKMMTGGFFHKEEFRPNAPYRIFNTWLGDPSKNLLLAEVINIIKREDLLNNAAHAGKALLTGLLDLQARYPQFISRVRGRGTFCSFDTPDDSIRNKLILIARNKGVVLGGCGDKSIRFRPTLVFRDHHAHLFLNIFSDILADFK

O=Cc1ccc(O)c([N+](=O)[O-])c1
IC50 [1]: 33.1 µM
IC50 [2]: 15.5 µM

COc1ccc(C=O)cc1 [ANISALDEHYDE]
IC50 [1]: > 1000 µM
IC50 [2]: > 1000 µM

NCc1ccc(O)cc1
IC50 [1]: > 1000 µM
IC50 [2]: 15.4 µM

C=CC(=O)c1ccc(O)cc1
IC50 [1]: 0.35 µM
IC50 [2]: 5.48 µM

CC(=O)c1ccc(O)cc1 [4-HYDROXYACETOPHENONE]
IC50 [1]: 166 µM
IC50 [2]: 188 µM

COc1cc(C=O)ccc1O [VANILLIN]
IC50 [1]: 15.6 µM
IC50 [2]: 17.1 µM

OCc1ccc(O)cc1 [PARAHYDROXYBENZYL ALCOHOL]
IC50 [1]: > 1000 µM
IC50 [2]: > 1000 µM

O/N=C/c1ccc(O)cc1
IC50 [1]: > 1000 µM
IC50 [2]: > 1000 µM

CCC(=O)c1ccc(O)cc1 [PAROXYPROPIONE]
IC50 [1]: 293 µM
IC50 [2]: 176 µM

COc1cc(/C=N/O)ccc1O
IC50 [1]: > 1000 µM
IC50 [2]: > 1000 µM

O=Cc1ccc(O)cc1 [4-HYDROXYBENZALDEHYDE]
IC50 [1]: 24.7 µM
IC50 [2]: 16.5 µM

O=C(O)c1ccc(O)cc1 [PARABEN]
IC50 [1]: > 1000 µM
IC50 [2]: > 1000 µM

O=Cc1ccc(O[C@@H]2O[C@H](CO)[C@@H](O)[C@@H](O)[C@H]2O)cc1 [HELICIDE]
IC50 [1]: > 1000 µM
IC50 [2]: > 1000 µM

Nc1ccc(C(=O)O)cc1 [AMINOBENZOIC ACID]
IC50 [1]: > 1000 µM
IC50 [2]: > 1000 µM

OCc1ccc(O[C@@H]2O[C@H](CO)[C@@H](O)[C@H](O)[C@H]2O)cc1 [GASTRODIN]
IC50 [1]: > 1000 µM
IC50 [2]: > 1000 µM
